In paper PMC8567874, “Metronomic delivery of orally available pemetrexed-incorporated colloidal dispersions for boosting tumor-specific immunity” (Drug Delivery, 2021):

Assay: In situ single-pass rat intestinal perfusion
Type: in vivo
Details: other: in situ single-pass intestinal perfusion, rat intestine, n = 4, read-out: Effective permeability (Peff)
Experimental: The in situ single-pass intestinal effective permeabilities (Peff) of PMX, PMX/DL(1:1), PMX/DL(1:2), PMX/DL(1:1)-CD, and PMX/DL(1:2)-CD were investigated in rats. The rats were fasted overnight for 12–16 h with free access to water before the experiment and then anesthetized by intramuscular injection of tiletamine·HCl–zolazepam mixture (1:1 [w/w]; 40 mg/kg). With the animal in the supine position, the abdominal cavity was opened using a midline longitudinal incision, and the intestine (duodenum, jejunum, and ileum) was exposed and subsequently intubated at the two ends with a polypropylene perfusion tube connected to a peristaltic pump (Harvard Apparatus, Holliston, MA, USA). After covering the entire excised area with a cotton pad soaked with warm normal saline, the cannulated intestinal segments were flushed with blank perfusion buffer at 37 °C for 30 min, at a constant flow rate of 0.5 mL/min, to remove residual intestinal contents. Then, drug solutions of PMX, PMX/DL(1:1), PMX/DL(1:2), PMX/DL(1:1)-CD, or PMX/DL(1:2)-CD (equivalent to 100 μg/mL PMX) were perfused through the intestinal lumen at 37 °C and a constant flow rate of 0.2 mL/min. After allowing 30 min to achieve a steady-state, outlet perfusate was collected every 15 min for 120 min. In addition, to assess the reliability of the perfusion study, 100 μg/mL fluorescein diluted in perfusion buffer was perfused separately under the same conditions and the collected samples were analyzed at excitation/emission wavelengths of 494/512 nm using a microplate reader (PerkinElmer multimode plate reader; PerkinElmer, Waltham, MA, USA) as a low-permeability marker. During the experiment, all animals were kept on heated pads under a heat lamp to maintain a normal body temperature. At the end of the experiment, the lengths and radii of the cannulated intestinal segments were measured, taking care to avoid stretching them. The collected samples were then filtered using 0.45-μm PVDF filters and stored at −20 °C before analyses. The outlet concentration of PMX in the perfusate was analyzed by HPLC as described above. In addition, the errors caused by rat intestinal water absorption and secretion during perfusion were corrected by the net water flux (ratio of the […] perfusate flows, Qout/Qin) and the corrected drug concentration in perfusate for each formulation was calculated based on the following equation (i.e. gravimetric method): Cout,corr = Cout × (Qout/Qin), where Cout,corr is the corrected outlet PMX concentration (µg/mL), Cout is the PMX outlet concentration (µg/mL), Qin (mL/min) is the flow rate entering the intestine, and Qout (mL/min) is the measured perfusate exit flow (net weight/15 min, assumed density of 1.0 g/mL) for the specified time interval. After correction, the Peff was calculated using the equation: Peff = Qin/A × ln(Cout,corr/Cin), where A is the intestinal area available for absorption (2πrl) based on its length (l) and radius (r).

Papp at 120 min, 100 μg/mL: 0.1 ± 0.2 ×10⁻⁶ cm/s
SMILES: O=C1OC2(c3ccc(O)cc3Oc3cc(O)ccc32)c2ccccc21 [fluorescein]
